Among the data in article PMC4074815, “An Impermeant Ganetespib Analog Inhibits Extracellular Hsp90-Mediated Cancer Cell Migration that Involves Lysyl Oxidase 2-like Protein” (Cancers, 2014) are IC50 values, retold here.

For the test, the target named is T1, Hsp90 alpha (Homo sapiens, UniProt P07900).
T1 construct: gene HSP90AA1; Hsp90alpha recombinant enzyme (BPS Bioscience Hsp90α assay kit, Cat #50294)
As to the kind of experiment: fluorescence polarization competition with FITC-labeled geldanamycin. It counts as binding. For orientation: In fluorescence polarisation assays a small probe gives low polarisation when free and higher when bound to something large.

The structures appear in SMILES notation.

By IC50 is commonly meant the point on the concentration scale where inhibition reaches its midpoint. High values mean lower potency, low ones higher potency. `CC(C)c1cc(-c2nnc(O)n2-c2ccc3c(ccn3CCNC(=O)CCCC[C@@H]3SC[C@@H]4NC(=O)N[C@@H]43)c2)c(O)cc1O` [STA-12-7191] gave a half-inhibitory concentration (IC50) of 62 nM. This lies in the double-digit nanomolar range.
